Measurements from BindingDB's records for PubMed 32942081 (Jamia Millia Islamia, 2020).

Molecular target: T1, Amine oxidase [flavin-containing] B (Homo sapiens, UniProt P27338)
T1 sequence (P27338 whole entry): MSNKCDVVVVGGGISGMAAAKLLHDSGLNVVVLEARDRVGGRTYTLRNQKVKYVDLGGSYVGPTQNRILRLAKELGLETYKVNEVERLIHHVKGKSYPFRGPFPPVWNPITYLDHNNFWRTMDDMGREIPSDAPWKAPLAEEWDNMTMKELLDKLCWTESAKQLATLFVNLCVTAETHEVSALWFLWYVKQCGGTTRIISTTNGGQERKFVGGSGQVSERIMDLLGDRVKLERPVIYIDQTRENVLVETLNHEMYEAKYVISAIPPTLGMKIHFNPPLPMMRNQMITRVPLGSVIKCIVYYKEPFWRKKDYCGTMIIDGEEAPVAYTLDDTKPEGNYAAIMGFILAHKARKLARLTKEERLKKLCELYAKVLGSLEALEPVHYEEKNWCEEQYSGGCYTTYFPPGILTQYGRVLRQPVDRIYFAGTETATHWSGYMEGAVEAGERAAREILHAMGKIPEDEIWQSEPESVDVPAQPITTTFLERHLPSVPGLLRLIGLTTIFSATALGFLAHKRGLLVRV
Experiment: Inhibition of human MAO-B using tyramine as substrate by amplex red assay

- IC50: 1.9 nM
Structure (SMILES): Cc1ccc(C2=NO[C@@H](c3ccc(Cl)c(Cl)c3)C2)cc1
